Assay results: paper PMC4300400, “Comparative biochemical analysis of three members of the Schistosoma mansoni TAL family: Differences in ion and drug binding properties” (Biochimie, 2015)
Structures can show the parent of a compound that is named as a salt.

T1: SmTAL3 (Sm20.8) (Schistosoma mansoni, UniProt P91804)
T1 construct: gene Sm 20.8; recombinant, E. coli, N-terminal GST fusion cleaved with thrombin; EF-hand-like N-terminal plus DLC-like C-terminal domain; dimer and higher oligomers
T1 sequence (P91804 1-181): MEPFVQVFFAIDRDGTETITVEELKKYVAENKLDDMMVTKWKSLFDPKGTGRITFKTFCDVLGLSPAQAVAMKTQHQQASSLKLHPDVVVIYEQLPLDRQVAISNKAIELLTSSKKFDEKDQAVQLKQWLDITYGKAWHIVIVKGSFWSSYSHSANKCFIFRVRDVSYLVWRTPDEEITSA

T2: SmTAL2 (Sm21.7) (Schistosoma mansoni, UniProt P32070)
T2 construct: recombinant, E. coli, N-terminal GST fusion cleaved with thrombin; EF-hand N-terminal plus DLC-like C-terminal domain; dimer
T2 sequence (P32070 1-184): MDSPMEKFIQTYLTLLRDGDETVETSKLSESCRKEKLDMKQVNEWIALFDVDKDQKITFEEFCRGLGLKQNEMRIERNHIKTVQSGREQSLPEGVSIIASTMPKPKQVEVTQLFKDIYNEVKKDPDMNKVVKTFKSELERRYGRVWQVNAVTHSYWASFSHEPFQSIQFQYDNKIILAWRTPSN

T3: SmTAL1 (Sm22.6) (Schistosoma mansoni, UniProt P14202)
T3 construct: gene A12; recombinant, E. coli, N-terminal GST fusion cleaved with thrombin; EF-hand N-terminal plus DLC-like C-terminal domain; dimer
T3 sequence (P14202 1-190): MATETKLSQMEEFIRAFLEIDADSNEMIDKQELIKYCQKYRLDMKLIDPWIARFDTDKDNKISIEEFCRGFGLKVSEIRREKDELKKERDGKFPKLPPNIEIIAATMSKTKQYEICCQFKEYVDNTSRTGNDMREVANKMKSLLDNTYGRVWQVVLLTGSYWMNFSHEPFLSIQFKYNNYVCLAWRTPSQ


What was measured:
[1] = target: T1, SmTAL3 (Sm20.8); test: differential scanning fluorimetry (Sypro Orange); type: binding; conditions: 250 µM; 0.25 mM drug, 7 μM protein, 1% DMSO, 0.8 mM CaCl2, 50 mM Hepes pH 7.5, 150 mM NaCl; absolute Tm, not a shift (DMSO control in the 1st table, row 5)
Description: differential scanning fluorimetry (Sypro Orange) on SmTAL3 (Sm20.8)

[2] = target: T2, SmTAL2 (Sm21.7); test: limited proteolysis protection (trypsin, chymotrypsin); type: binding; conditions: 250 μM drug, 10 μM protein, 1% DMSO, 0.8 mM CaCl2, 37 °C
[3] = target: T3, SmTAL1 (Sm22.6); test: differential scanning fluorimetry (Sypro Orange); type: binding; conditions: 250 µM; 0.25 mM drug, 5 μM protein, 1% DMSO, 0.8 mM CaCl2, 50 mM Hepes pH 7.5, 150 mM NaCl; absolute Tm, not a shift (DMSO control in the 1st table, row 5)
Description: differential scanning fluorimetry (Sypro Orange) on SmTAL1 (Sm22.6)

[4] = target: SmTAL3 (Schistosoma mansoni tegumental allergen-like protein 3) (Schistosoma mansoni); test: cross-linking; BS3 (50, 150, 500 μM) with 10-15 μM protein in buffer R (50 mM Hepes-OH pH 7.5, 150 mM NaCl, 10% v/v glycerol), 37 °C, 35 min; with 0.8 mM EGTA or 0.8 mM EGTA/1.6 mM calcium chloride; analysed by 15% SDS-PAGE
[5] = target: the molecule itself; test: as above

| Molecule | SmTAL3 [1] [°C] | melting temperature (Tm) [3] [°C] | other results |
| --- | --- | --- | --- |
| NCCCCCCNS(=O)(=O)c1cccc2c(Cl)cccc12 [W7, N-(6-Aminohexyl)-5-chloro-1-naphthalenesulfonamide hydrochloride] | 74.3 ± 0.1 | 61.5 ± 0.3 | limited proteolysis protection (trypsin, chymotrypsin) [2]: Of the drugs tested, only W7 protected SmTAL2 from limited proteolysis by trypsin or chymotrypsin |
| CN(C)CCCN1c2ccccc2Sc2ccc(Cl)cc21 [chlorpromazine] | 74.1 ± 0.1 | 61.3 ± 0.3 |  |
| O=C(C1CCCCC1)N1CC(=O)N2CCc3ccccc3C2C1 (centres unmarked) [praziquantel] |  | 61.7 ± 0.2 |  |
| CN1CCN(CCCN2c3ccccc3Sc3ccc(C(F)(F)F)cc32)CC1 [trifluoperazine] | 73.9 ± 0.1 | 62.2 ± 0.8 |  |
| SmTAL3 (Schistosoma mansoni tegumental allergen-like protein 3) (natural protein) |  |  | stoichiometry N [4]: 2 |
| SmTAL2 (Schistosoma mansoni tegumental allergen-like protein 2) (natural protein, UniProt P32070 1-184, looked up, SmTAL2 (Sm21.7), Schistosoma mansoni, GenBank AAA74050.1, Smp_086480.1; also called Sm21.7; source: E. coli, GST-fusion isolated on glutathione-agarose, cleaved with thrombin, free GST removed on Q-Sepharose; not shown: GST, N-terminal, cleaved) MDSPMEKFIQTYLTLLRDGDETVETSKLSESCRKEKLDMKQVNEWIALFDVDKDQKITFEEFCRGLGLKQNEMRIERNHIKTVQSGREQSLPEGVSIIASTMPKPKQVEVTQLFKDIYNEVKKDPDMNKVVKTFKSELERRYGRVWQVNAVTHSYWASFSHEPFQSIQFQYDNKIILAWRTPSN |  |  | stoichiometry N [5]: 2 |
| SmTAL1 (Schistosoma mansoni tegumental allergen-like protein 1) (natural protein, UniProt P14202 1-190, looked up, SmTAL1 (Sm22.6), Schistosoma mansoni, GenBank AAA29922.1, Smp_045200.1; also called Sm22.6; source: E. coli, GST-fusion isolated on glutathione-agarose, cleaved with thrombin, free GST removed on Q-Sepharose; not shown: GST, N-terminal, cleaved) MATETKLSQMEEFIRAFLEIDADSNEMIDKQELIKYCQKYRLDMKLIDPWIARFDTDKDNKISIEEFCRGFGLKVSEIRREKDELKKERDGKFPKLPPNIEIIAATMSKTKQYEICCQFKEYVDNTSRTGNDMREVANKMKSLLDNTYGRVWQVVLLTGSYWMNFSHEPFLSIQFKYNNYVCLAWRTPSQ |  |  | stoichiometry N [5]: 2 |
